Values joined by “and” are separate entries in the source; they are usually repeats but may differ in a detail not shown here. Identical values can stand only once. Like-named read-outs stand apart in the source and are kept apart here.
How the values were obtained:
[1] = system: lentiviral vector exposing the SARS-CoV-2 Spike protein, Wuhan isoform; assay type: cell-based; conditions: 5 µM, 4 h pre-incubation, HEK293-ACE2, Wuhan Spike
HCoV-OC43 [2] = test: HCoV-OC43 time-of-addition assay; assay type: cell-based; conditions: 50 µM; for antiviral activity, virus released in supernatant: MRC-5, MOI 0.1, 24 hours post-infection
[3] = system: lentiviral vector exposing the SARS-CoV-2 Spike protein, B.1.351 SA isoform; assay type: cell-based; conditions: 1 or 5 µM, 4 h pre-incubation, HEK293-ACE2, B.1.351 SA Spike
SARS-CoV-2 [4] = test: SARS-CoV-2 virus inactivation (virucidal) assay; assay type: cell-based; conditions: 5 μM incubated with SARS-CoV-2 for 2 hours, Vero E6 plaque assay
SARS-CoV-2 [5] = test: microbe, parasite or virus in culture; assay type: cell-based
HCoV-OC43 [6] = test: HCoV-OC43 virus inactivation assay; assay type: cell-based; conditions: 50 µM with 10^5 FFU for 2 h at 34°C
3CL-Pro SARS-CoV-2 = target: T1, 3CL-Pro SARS-CoV-2 (Severe acute respiratory syndrome coronavirus 2, UniProt P0DTD1); test: biochemical
T1 construct: The SARS-CoV-2 nsp5 protease activity was measured in black 384 well plates

HCoV-OC43 [7] = test: HCoV-OC43 antiviral focus reduction assay; assay type: cell-based
Protocol: The antiviral efficacy of lurasidone was determined by focus reduction assay, as described elsewhere ([Milani et al., 2021]). Briefly, MRC-5 sub-confluent cells in 96-well plates were infected with HCoV-OC43 at a multiplicity of infection (MOI) of 0.001 FFU/cell and concurrently treated with increasing concentrations of drug (100 to 0.12 µM). After incubation at 34°C for 16 hours, infected foci were visualized with an indirect immunocytochemistry procedure, using a primary antibody directed against the nucleoprotein of HCoV-OC43 (MAB9013, Merck KGaA, Darmstadt, Germany) or a primary antibody directed against the dsRNA (10010500, Nordic-MUbio, Susteren, Netherlands).
(§1) All data were analyzed with GraphPad Prism version 8.00 software. Results were expressed as mean values for three independent experiments performed in duplicate. […] Selectivity indexes were calculated as SI = CC50/EC50. The Student’s T-test was used to compare viral titers in virus inactivation assay. The viral titers of control and treated samples in time-of-addition assays were compared using a one-way analysis of variance (ANOVA) and a post-hoc Bonferroni test. Significance was set at p value <0.05 (*), <0.01 (**) and <0.001 (***).

[8] = Cell viability assay on MRC-5 cells; assay type: cell-based; conditions: human, same conditions as antiviral assay
Protocol: Pre-seeded MRC-5 cells were treated with the drug at concentrations ranging from 1000 to 12.3 μM or equal volumes of DMSO as control, under the same experimental conditions for the antiviral assays. After incubation, the CellTiter 96 Proliferation Assay Kit (Promega, Madison, WI, USA) was used to determine the effect of lurasidone on cell viability. The effect on cell viability was expressed as a percentage, by comparing absorbances of treated cells with those of cells incubated with DMSO-treated control wells.
as §1

HEK293-ACE2 cells = test: Cell viability, MTT assay; assay type: cell-based, Human; conditions: 100 µM (maximum tested dose), 24 hours administration
Protocol: (§2) HEK293-ACE2 cells were seeded (2 x 10^4 cells/well) on 96-well plates in a complete DMEM medium with 10% FBS. After incubation for 24 hours at 37°C in humidified 5% CO2, the medium was replaced with a fresh one containing lurasidone previously dissolved in Milli-Q water at 0.1 – 100 µM. Control cells were treated with an equivalent volume of vehicle only. Cells were incubated for 24 hours at 37°C in humidified 5% CO2, then the medium was replaced with a fresh one without lurasidone. After an additional incubation of 24 hours at 37°C in humidified 5% CO2, HEK293-ACE2 cells were treated with 5 mg/ml 3-(4,5-dimethylthiazol-2-yl)-2,5 diphenyltetrazolium bromide (MTT) (Sigma Aldrich, St. Louis, MO, USA, #M5655-1G) in 5 mM Phosphate Buffered Saline (PBS), pH 7.4. After incubation for 4 hours at 37°C, MTT was removed, and the cells resuspended in isopropanol containing 0.04 M HCl. The absorbance of the samples was determined at 560 nm using a spectrophotometer (Infinite M200, Tecan, Männedorf, Switzerland), and the cell viability was expressed as a percentage of Vehicle-treated cells.

[9] = Cell viability, MTT assay; assay type: cell-based, Human; conditions: human, HEK293-ACE2 cells, 10 µM, 24 hours administration
Protocol: as §2

RdRp SARS-CoV-2 = target: T2, RdRp SARS-CoV-2 (Severe acute respiratory syndrome coronavirus 2, UniProt P0DTD1); test: biochemical
T2 construct: SARS-CoV-2 RdRp was expressed and purified as described; made in house

[10] = target: T3, recombinant human ACE2 (rhACE2) (Homo sapiens, UniProt Q9BYF1); test: Surface plasmon resonance direct binding assay; conditions: 10 µM injected on immobilized rhACE2
T3 construct: purchased Acrobiosystem
T3 sequence (Q9BYF1 18-805): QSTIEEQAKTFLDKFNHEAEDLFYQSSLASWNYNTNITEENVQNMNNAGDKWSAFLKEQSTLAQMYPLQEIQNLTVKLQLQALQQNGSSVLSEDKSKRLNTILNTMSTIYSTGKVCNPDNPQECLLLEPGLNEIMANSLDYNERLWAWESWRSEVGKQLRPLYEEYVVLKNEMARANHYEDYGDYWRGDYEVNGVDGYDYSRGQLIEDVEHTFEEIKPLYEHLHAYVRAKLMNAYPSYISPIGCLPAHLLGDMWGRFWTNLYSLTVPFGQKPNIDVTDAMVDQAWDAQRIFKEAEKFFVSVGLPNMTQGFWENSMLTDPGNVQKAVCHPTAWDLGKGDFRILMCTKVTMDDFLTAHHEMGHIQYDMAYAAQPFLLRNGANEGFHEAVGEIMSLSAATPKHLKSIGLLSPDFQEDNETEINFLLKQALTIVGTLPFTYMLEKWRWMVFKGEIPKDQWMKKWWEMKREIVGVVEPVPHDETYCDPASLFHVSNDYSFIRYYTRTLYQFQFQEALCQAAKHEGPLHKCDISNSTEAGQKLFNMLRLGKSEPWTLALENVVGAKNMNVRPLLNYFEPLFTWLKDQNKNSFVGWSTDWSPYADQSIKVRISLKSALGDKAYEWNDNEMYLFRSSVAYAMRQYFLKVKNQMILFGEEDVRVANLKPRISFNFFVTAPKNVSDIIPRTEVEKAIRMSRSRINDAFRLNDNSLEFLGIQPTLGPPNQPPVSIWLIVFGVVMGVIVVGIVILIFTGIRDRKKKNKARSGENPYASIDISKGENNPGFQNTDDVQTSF
Protocol: Recombinant human ACE2-Fc tag (rhACE2) (Acrobiosystem) at 5 μg/mL in PBST was captured on a HC30M (Xantec) sensor chip after the immobilization of anti-Fc antibody (Biorad) at 25 μg/mL in acetate buffer pH 5.0 by classic amine coupling chemistry on a NHS/EDC activated surface, reaching a final immobilization level of ~ 1000 RU. Simultaneously, a mix of IgG antibodies at 25 μg/mL in acetate buffer pH 5.0 was immobilized on a parallel surface and used as reference.
To test the direct binding of rhACE2 and lurasidone, the drug was injected at 10 µM in PBST 0.1% DMSO for 200 seconds at 30 μl/min on both surfaces. In a different channel, we also flowed SARS-CoV-2 Spike protein RBD (Wuhan isotype) at 10 nM in PBST as a positive control.

[11] = system: lentiviral vector exposing the SARS-CoV-2 Spike protein, B.1.1.7 UK isoform; assay type: cell-based; conditions: 1 µM, 4 h pre-incubation, HEK293-ACE2, B.1.1.7 UK Spike
PL-Pro SARS-CoV-2 = target: T4, PL-Pro SARS-CoV-2 (Severe acute respiratory syndrome coronavirus 2, UniProt P0DTD1); test: Biochemical assay for SARS-CoV-2 PL-Pro
T4 construct: purified recombinant SARS-CoV-2 RdRp, 3CL-Pro and PL-Pro proteins

HCoV-OC43 [12] = test: HCoV-OC43 entry assay; assay type: cell-based; conditions: 100-0.4 μM during virus entry, MRC-5, MOI 0.05
Protocol: The assay evaluates whether the drug inhibits the entry of virus into host cells. First, a fixed inoculum of HCoV-OC43 at MOI of 0.05 was allowed to attach to prechilled confluent cells, for 20 min at 4°C. Cells were then washed with cold medium three times to remove unbound virus, treated with serial dilutions of lurasidone (from 100 to 0.4 μM), and incubated for 1 h at 34°C to allow virus entry. After incubation, outer virions were removed with a 30 second treatment of citrate buffer (pH 3.0). Then, cells were washed with warm medium three times and treated as for the antiviral assay.

[13] = system: ACE2 levels in HEK293-ACE2 cells; test: Western blot analysis of ACE2 expression; assay type: cell-based, Human; conditions: 5 µM, 24 h, HEK293-ACE2 cell lysates
Protocol: HEK293-ACE2 cells were seeded (2.4 x 10^5 cells/well) on 12-well plates in complete DMEM medium with 10% FBS and incubated for 24 hours at 37°C in humidified 5% CO2. The medium was then replaced with a fresh one containing 5 µM lurasidone. Control cells were treated with an equivalent volume of vehicle only. After incubation for 3, 6, and 24 hours at 37°C in humidified 5% CO2 the medium was removed, the cells collected and lysed for 15 min at 4°C with 20 mM Tris-HCl, pH 7.5, containing 150 mM NaCl, 1 mM Na2EDTA, 1 mM EGTA, 1% NP-40, 1% sodium deoxycholate, 2.5 mM sodium pyrophosphate, 1 mM β-glycerophosphate, 1 mM Na3VO4 and 1 µg/ml leupeptin. Samples were centrifuged for 10 min at 16,100 x g and the protein content was quantified by using a BCA protein assay kit (Thermofisher, Rockford, USA). 10 µg of total proteins were loaded in each lane, immunoblotted using 10% bis-Tris gel (Invitrogen, Waltham, MA, USA), and transferred to a PVDF membrane (Millipore, Vimodrone, Milan, Italy). The membranes were incubated overnight at 4°C with an anti-ACE2 AC18Z mouse monoclonal antibody (1:200, Santa Cruz Biotechnology, Santa Cruz, CA, USA) or anti-β-actin mouse monoclonal antibody (1:5000, Sigma Aldrich). Peroxidase-conjugated anti-mouse IgG (1:5000, Sigma Aldrich) was used as the secondary antibody. Hybridization signals were detected with a ChemiDoc XRS Touch Imaging System (Bio-Rad).

[14] = design: method as in Bawa and Scarff, 2015; conditions: patients, minimal changes in the metabolic profile; ref Bawa and Scarff, 2015; cited from earlier work

With `O=C1[C@@H]2[C@H]3CC[C@H](C3)[C@@H]2C(=O)N1C[C@@H]1CCCC[C@H]1CN1CCN(c2nsc3ccccc23)CC1` [Lurasidone, lurasidone] the “inhibition of transduction (GFP-positive cells)” value (“inhibition of transduction” below) [1] was “active”, the “reduction of virus titer” value (HCoV-OC43 [2]; 18 hours post-infection treatment, p < 0.001) was “significant reduction” and the “antiviral activity, virus released in supernatant” value (HCoV-OC43 [2]; co-treatment 1 hour during virus inoculum) was “not active”. The “inhibition of virus production” value (HCoV-OC43 [2]; post-treatment 1, 4, 18 hours after infection, MRC-5, MOI 0.1) was “significantly inhibited virus production”, the “antiviral activity, virus released in supernatant” value (HCoV-OC43 [2]; pre-treatment 1 hour before infection) was “not active” and the “inhibition of transduction” value [3] was “not effective”. The virucidal activity (SARS-CoV-2 [4]) was “did not show any significant virucidal activity”, the “effect on viral replication” value (SARS-CoV-2 [5]) was “did not affect viral replication” and the “inhibition of viral replication” value (SARS-CoV-2 [5]) was 78% and 79% and 40%. For the same molecule, the inhibition at 5 µM (SARS-CoV-2 [5]; Severe acute respiratory syndrome coronavirus 2, 24 h, read-out: inhibition of viral replication) was 76%, the intrinsic virucidal activity (HCoV-OC43 [6]) was “not endowed with intrinsic virucidal activity” and the IC50 (3CL-Pro SARS-CoV-2) was over 100 µM. For the same molecule, the remaining activity at 100 µM (3CL-Pro SARS-CoV-2; in the presence of 100 µM, read-out: Percentage of control activity, 3CL-Pro) was 87%, the EC50 (HCoV-OC43 [7]; Betacoronavirus 1, OC43, MRC5, 16 h, read-out: EC50 (mean ± SD), viral marker NP (nucleoprotein), MRC-5 cells, MOI 0.001, 16 hours) was 8.3 µM and the EC50 (HCoV-OC43 [7]; Betacoronavirus 1, OC43, MRC5, 16 h, read-out: EC50 (mean ± SD), viral marker dsRNA, MRC-5 cells, MOI 0.001, 16 hours) was 8.5 µM. For the same molecule, the EC90 (HCoV-OC43 [7]; Betacoronavirus 1, OC43, MRC5, read-out: EC90 (mean ± SD), viral marker NP (nucleoprotein), MRC-5 cells) was 23.5 µM, the EC90 (HCoV-OC43 [7]; Betacoronavirus 1, OC43, MRC5, read-out: EC90 (mean ± SD), viral marker dsRNA, MRC-5 cells) was 11.9 µM and the EC50 (HCoV-OC43 [7]; Betacoronavirus 1, OC43, both markers (NP and dsRNA)) was about 8 µM. For the same molecule, the EC99 dose (HCoV-OC43 [7]; MRC-5 cells, HCoV-OC43) was 50 µM, the “SI (CC50/EC50)” value (HCoV-OC43 [7]; viral marker NP) was over 120.5 and the “SI (CC50/EC50)” value (HCoV-OC43 [7]; viral marker dsRNA) was over 117.6. The CC50 [8] was over 1000 µM, the toxicity (HEK293-ACE2 cells) was ~ 40% and the viability at 24 h, 10 µM [9] was about 80%. For the same molecule, the IC50 (RdRp SARS-CoV-2; 50 nM enzyme) was over 100 µM, the remaining activity at 100 µM (RdRp SARS-CoV-2; in the presence of 100 µM, read-out: Percentage of control activity, RdRp) was 100% and the “direct binding to rhACE2 (SPR)” value [10] was “not able to bind”. The “inhibition of transduction” value [11] was “able to inhibit”, the IC50 (PL-Pro SARS-CoV-2) was 0.12 ± 0.03 µM and the “inhibition of virus entry into the host cell” value (HCoV-OC43 [12]) was “does not act during the early steps of virus infection”. The “modification in the ACE2 levels” value [13] was “no significant modification” and the “tolerability in clinical trials” value [14] was “good tolerability”.

Reference: PMC11625747, “The antipsychotic drug lurasidone inhibits coronaviruses by affecting multiple targets” (Frontiers in Cellular and Infection Microbiology, 2024)
